Data from ChEMBL document CHEMBL3039007, “Structure-based identification of OATP1B1/3 inhibitors” (Mol Pharmacol, 2013).

Experiments:
[1] = target: T1, Solute carrier organic anion transporter family member 1B1 (Homo sapiens, UniProt Q9Y6L6); conditions: chinese hamster, cho, 10 µM
T1 sequence (Q9Y6L6 whole entry): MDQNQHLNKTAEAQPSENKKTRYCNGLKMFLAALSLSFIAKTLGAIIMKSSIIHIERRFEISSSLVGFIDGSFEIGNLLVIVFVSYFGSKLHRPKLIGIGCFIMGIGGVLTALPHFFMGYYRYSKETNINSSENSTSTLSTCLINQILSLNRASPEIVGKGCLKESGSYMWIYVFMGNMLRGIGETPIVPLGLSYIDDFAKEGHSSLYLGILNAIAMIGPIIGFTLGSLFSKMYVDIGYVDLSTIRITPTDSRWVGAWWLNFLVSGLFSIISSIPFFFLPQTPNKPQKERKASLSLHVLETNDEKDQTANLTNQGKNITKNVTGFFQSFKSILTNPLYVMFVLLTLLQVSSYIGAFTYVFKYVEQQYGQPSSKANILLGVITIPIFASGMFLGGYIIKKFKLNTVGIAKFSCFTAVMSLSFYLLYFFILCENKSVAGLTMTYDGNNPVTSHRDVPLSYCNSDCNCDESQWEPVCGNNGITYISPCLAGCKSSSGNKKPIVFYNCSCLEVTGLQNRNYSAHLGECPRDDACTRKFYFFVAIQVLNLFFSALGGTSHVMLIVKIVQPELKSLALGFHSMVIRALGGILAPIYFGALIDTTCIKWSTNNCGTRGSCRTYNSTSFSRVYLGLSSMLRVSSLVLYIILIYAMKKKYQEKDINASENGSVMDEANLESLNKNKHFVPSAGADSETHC

[2] = target: T2, Solute carrier organic anion transporter family member 1B3 (Homo sapiens, UniProt Q9NPD5); conditions: chinese hamster, cho, 10 µM
T2 sequence (Q9NPD5 whole entry): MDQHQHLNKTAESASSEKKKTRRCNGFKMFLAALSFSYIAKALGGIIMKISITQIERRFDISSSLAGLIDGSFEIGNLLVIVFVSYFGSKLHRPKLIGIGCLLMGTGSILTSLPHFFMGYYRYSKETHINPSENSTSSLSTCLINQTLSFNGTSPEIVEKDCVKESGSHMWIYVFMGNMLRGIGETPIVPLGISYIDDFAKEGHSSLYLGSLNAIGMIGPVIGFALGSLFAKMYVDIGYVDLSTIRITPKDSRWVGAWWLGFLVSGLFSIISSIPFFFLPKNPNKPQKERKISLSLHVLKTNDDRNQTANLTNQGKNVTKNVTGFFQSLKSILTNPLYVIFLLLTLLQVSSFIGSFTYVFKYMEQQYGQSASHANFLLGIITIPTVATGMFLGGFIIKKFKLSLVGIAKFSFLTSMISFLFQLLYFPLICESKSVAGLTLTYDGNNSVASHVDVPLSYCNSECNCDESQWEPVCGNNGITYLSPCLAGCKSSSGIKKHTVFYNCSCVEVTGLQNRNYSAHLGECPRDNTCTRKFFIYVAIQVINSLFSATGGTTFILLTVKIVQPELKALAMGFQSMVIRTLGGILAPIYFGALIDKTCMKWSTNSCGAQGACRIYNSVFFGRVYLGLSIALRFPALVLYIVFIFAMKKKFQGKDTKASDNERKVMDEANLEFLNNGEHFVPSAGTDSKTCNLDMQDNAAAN

Structure (SMILES)	residual activity [1]	residual activity [2]
COC(=O)C[C@H]1C(C)(C)C2(O)OC34CC2C(=O)[C@]1(C)C3CC[C@]1(C)C4=CC(=O)O[C@H]1c1ccoc1 (stereo partly drawn) [8beta-HYDROXYCARAPIN, 3,8-HEMIACETAL]	28.54%	49.62%
C[C@]12CCC(=O)C=C1CCc1ccc(O)cc12 [12-HYDROXY-4,4-BISNOR-4,8,11,13-PODOCARPATETRAEN-3-ONE]	47.54%	82.18%
COc1ccc2c(c1)[C@@]1(C)CC[C@@H](O)C[C@@H]1CC2 [12-METHOXY-4,4-BISNOR-5alpha-8,11,13-PODOCARPATRIEN-3-OL]	95.25%	91.61%
COc1ccc2c(c1)OC1(O)COc3cc(OC)c(OC)cc3C1=C2 (configuration not stated) [12a-HYDROXY-5-DEOXYDEHYDROMUNDUSERONE]	102.5%	119.6%
COc1cc2c(cc1OC)C1(O)C(=O)c3ccc(O)c(C(=O)O)c3OC1CO2 (configuration not stated) [12a-HYDROXY-9-DEMETHYLMUNDUSERONE-8-CARBOXYLIC ACID]	215.8%	86.59%
Cc1ccc2c(c1)CC[C@H]1CC(=O)CC[C@]21C [13-METHYL-4,4-BISNOR-8,11,13-PODOCARPATRIEN-3-ONE]	162.9%	93.8%
COc1cccc2c1CCC1=CC(=O)CC[C@@]12C [14-METHOXY-4,4-BISNOR-4,8,11,13-PODOCARPATETRAEN-3-ONE]	143.1%	94.94%
COc1cccc2c1CCC1CC(=O)CC[C@]21C (some centres not stated) [14-METHOXY-4,4-BISNOR-8,11,13-PODOCARPATRIEN-3-ONE]	118%	100.9%
C/C1=C\CCC(=O)C2CC(C)(C)C2CC1 (configuration not stated) [15-NORCARYOPHYLLEN-3-ONE]	72.07%	90.82%
COC(=O)C[C@H]1C(C)(C)C(=O)[C@H]2CC3=C4CC(OC)O[C@@H](c5ccoc5)[C@@]4(C)CCC3[C@]1(C)C2=O (some centres not stated) [16-DEOXOMEXICANOLIDE 16-METHYL ETHER]	53.47%	141.6%
CC(C)c1ccc2c(c1)CCC1[C@](C)(CN)CCC[C@]21C.O=S(=O)(O)O (some centres not stated) [18-AMINOABIETA-8,11,13-TRIENE SULFATE]	102.4%	99.03%
CC(C)c1c(O)ccc2c1CC[C@H]1[C@@](C)(CO)CCC[C@]21C [19-HYDROXYTOTAROL]	15.89%	20.52%
CC(C)(O)CC[C@@H](O)[C@](C)(O)[C@H]1CC[C@@]2(O)C3=CC(=O)[C@@H]4C[C@@H](O)[C@@H](O)C[C@]4(C)[C@H]3CC[C@]12C [20-HYDROXYECDYSONE]	115%	127.1%
C[C@H](N)[C@H](O)c1ccccc1 [(1R,2S)-PHENYLPROPANOLAMINE]	97.41%	87%
CC(=O)C1=C(O)C=C2Oc3c(C(C)=O)c(O)c(C)c(O)c3[C@@]2(C)C1=O [(+)-USNIC ACID]	31.05%	69.13%
Oc1cc(O)c2c(c1)O[C@H](c1ccc(O)c(O)c1)[C@H](O)C2 [(-)-EPICATECHIN]	80.37%	77.92%
CN[C@@H](Cc1c[nH]c2ccccc12)C(=O)O [ABRINE]	86.73%	98.3%
COc1ccc(-c2cc(=O)c3c(OC(C)=O)cc(OC(C)=O)cc3o2)cc1 [ACACETIN DIACETATE]	133.5%	127.6%
CCCC(=O)Nc1ccc(OCC(O)CNC(C)C)c(C(C)=O)c1.Cl (configuration not stated) [ACEBUTOLOL HYDROCHLORIDE]	74.42%	93.16%
CCN(CC)CCNC(=O)c1ccc(NC(C)=O)cc1.Cl [ACECAINIDE HYDROCHLORIDE]	70.32%	90.6%
COc1ccc2c(c1)c(CC(=O)OCC(=O)O)c(C)n2C(=O)c1ccc(Cl)cc1 [ACEMETACIN]	57.75%	84.99%
COP(=O)(NC(C)=O)SC (configuration not stated) [ACEPHATE]	75.83%	83.6%
CC(=O)Nc1ccc(O)cc1 [ACETAMINOPHEN]	99.98%	96.68%

Structure (SMILES)	residual activity [1]	residual activity [2]
CC(=O)Nc1ccc(OC(=O)c2ccccc2O)cc1 [ACETAMINOSALOL]	103.1%	102.7%
CC(=O)Nc1ccccc1 [ACETANILIDE]	96.78%	100.2%
CC(=O)Nc1cc([As](=O)(O)O)ccc1O [ACETARSONE]	58.73%	85.71%
CC(=O)Nc1nnc(S(N)(=O)=O)s1 [ACETAZOLAMIDE]	90.74%	84.51%
CCOCN(C(=O)CCl)c1c(C)cccc1CC [ACETOCHLOR]	74.59%	84.4%
CC(=O)NO [ACETOHYDROXAMIC ACID]	91.26%	100.9%
COc1cc(C(C)=O)cc(OC)c1O [ACETOSYRINGONE]	104.7%	115.4%
CC(=O)Nc1c(I)cc(I)c(C(=O)O)c1I [ACETRIZOIC ACID]	133.1%	98.63%
CC(=O)O[C@H]1CC[C@]2(C)[C@H]3CC=C4[C@@H]5CC(C)(C)CC[C@]5(C(=O)O)CC[C@@]4(C)[C@]3(C)CC[C@H]2C1(C)C [ACETYL OLEANOLIC ACID]	37.04%	24.66%
CCOC(=O)C(Cc1ccc(O)cc1)NC(C)=O (configuration not stated) [ACETYL TYROSINE ETHYL ESTER]	118.5%	103.5%
CC(=O)N[C@@H](CS)C(=O)O [ACETYLCYSTEINE]	82.21%	89.21%
CC(=O)NCCc1c[nH]c2ccc(O)cc12 [ACETYLSEROTONIN]	100.7%	91.29%
CC(=O)N[C@@H](Cc1c[nH]c2ccccc12)C(N)=O [ACETYLTRYPTOPHANAMIDE]	85.16%	60.38%
CC(=O)N[C@@H](Cc1c[nH]c2ccccc12)C(=O)O [ACETYLTRYPTOPHAN]	63.36%	85.99%
CC(=O)NCCCCCC(=O)O [ACEXAMIC ACID]	144.2%	111.3%
N[C@H](C(=O)O)[C@@H]1CC(Cl)=NO1 [ACIVICIN]	137.7%	113.3%
CC[C@@]1(O)C[C@H](O[C@H]2C[C@H](N(C)C)[C@H](O[C@H]3C[C@H](O)[C@H](O[C@H]4CCC(=O)[C@H](C)O4)[C@H](C)O3)[C@H](C)O2)c2c(cc3c(c2O)C(=O)c2c(O)cccc2C3=O)[C@H]1C(=O)OC [ACLARUBICIN]	95.52%	107.1%
O=C(O)/C=C(\CC(=O)O)C(=O)O [ACONITIC ACID]	102.5%	88.62%
CCN1C[C@]2(COC)[C@H](O)C[C@H](OC)[C@@]34[C@@H]5C[C@@]6(O)[C@H](OC(=O)c7ccccc7)[C@@H]5[C@@](OC(C)=O)([C@@H]([C@H](OC)[C@H]23)[C@@H]14)[C@@H](O)[C@@H]6OC [ACONITINE]	65.77%	85.31%
CCCCCCc1ccc(O)cc1O.Nc1c2ccccc2nc2ccccc12 [ACRISORCIN]	70.31%	120.2%
Nc1nc2c(ncn2COCCO)c(=O)[nH]1 [ACYCLOVIR]	103.4%	105.5%
Nc1ncnc2nc[nH]c12 [ADENINE]	90.14%	81.98%
Nc1ncnc2c1ncn2[C@@H]1O[C@H](COP(=O)(O)O)[C@@H](O)[C@H]1O [ADENOSINE PHOSPHATE]	91.52%	90.72%
